Read-outs that look alike come from different tables or passages of the source.
Columns and labels:
TNFα = assay: IRAK4 Monocyte TNFα Cell Based Assay; design: species or system human
In short: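 TNFα release quantified by HTRF (cryptate/XL665 antibody pair, overnight at RT) after 1 h compound pre-incubation (0.1% DMSO) and 4 h LPS challenge at 50 pg/ml, 37 °C, 5,000 monocytes per well. Signal ratio normalised between unstimulated (0%) and stimulated (100%) controls.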

IRAK4 enzyme = IRAK4 enzyme (Homo sapiens (Human), UniProt Q9NWZ3); assay: IRAK4 Biochemical Assay (TR-FRET, STK1 KinEASE)
Sequence of IRAK4 enzyme (Q9NWZ3 whole entry): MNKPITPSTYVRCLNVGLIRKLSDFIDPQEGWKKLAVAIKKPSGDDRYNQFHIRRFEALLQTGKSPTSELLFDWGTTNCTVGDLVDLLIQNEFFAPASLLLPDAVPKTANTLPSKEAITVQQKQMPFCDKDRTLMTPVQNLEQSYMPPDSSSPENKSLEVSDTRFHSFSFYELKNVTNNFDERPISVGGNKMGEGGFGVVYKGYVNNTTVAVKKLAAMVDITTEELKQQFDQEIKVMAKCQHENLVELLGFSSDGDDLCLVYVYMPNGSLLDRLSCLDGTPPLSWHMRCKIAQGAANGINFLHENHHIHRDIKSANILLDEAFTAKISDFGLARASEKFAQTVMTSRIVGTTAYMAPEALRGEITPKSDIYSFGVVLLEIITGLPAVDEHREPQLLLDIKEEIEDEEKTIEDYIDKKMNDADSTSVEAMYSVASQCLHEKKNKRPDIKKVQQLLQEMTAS
Description: IRAK4 enzyme (Carna Biosciences, Chuo-ku, Kobe, Japan) activity was measured by detecting phosphorylated peptide substrate formation using an antibody against the phosphorylated peptide substrate. This is a time-resolved fluorescence resonance energy transfer (TR-FRET) immunoassay, based on the STK1 KinEASE Assay (Cisbio, Bedford, Mass.). The assay was designed as a simple two-step, endpoint assay (a 5 μl enzyme reaction followed by 5 μl stop and detect Solution) performed in ProxiPlate-384 Plus plates (Perkin Elmer, Waltham, Mass.). […] Compounds diluted in DMSO were spotted into 384 well plates using a Labcyte® Echo 550 Liquid Handling System prior to addition of IRAK4 enzyme and peptide substrate. Reaction solutions were delivered using a Multi-Flo (Bio-Tek Instruments). The enzyme and peptide solution was incubated with compound for 15 minutes at room temp before the reaction was initiated by the addition of ATP. The standard 5 μl reaction mixture contained 500 μM ATP, […] peptide (STK1 Peptide), 0.75 nM of IRAK4 in reaction buffer (50 mM HEPES, pH 7.0, 0.02% NaN3, 0.01% BSA, 0.1 mM Orthovanadate, 5 mM […], 0.025% NP-40, 1 mM DTT). After 120 min of incubation at room temperature, 5 μl of Stop and Detect Solution (1:100 Cryptate labeled anti-phosphorylated peptide antibody solution and 125 nM Tracer in a 50 mM HEPES pH 7.0 detection buffer containing sufficient EDTA) was added. The plate was then further incubated for 60 minutes at room temperature and read on Envision 2103 Multilabeled reader (PerkinElmer) with excitation/emission/FRET emission at 340 nm/615 nm665 nm, respectively. Fluorescence intensities at 615 nm and 665 nm emission wavelengths were expressed as aratio (665 nm/615 nm). Percentage of inhibition was calculated as below: % Inhibition=100×(Ratiosample−Ratio0% Inhibition)/(Ratio100% Inhibition−Ratio0% Inhibition)
The 0% inhibition value comes from control wells lacking inhibitor.

[1] = Homo sapiens, Monocyte, human monocytes, second part of Table 2, compounds 33-343, unit inferred, read-out: EC50 MONO TNF HTRF
[2] = Homo sapiens, Monocyte, read-out: EC50 MONO TNF HTRF
[3] = Homo sapiens, Monocyte, human monocytes, LPS stimulated, compounds 1-32, read-out: EC50 TNF
[4] = compounds 1-32, read-out: IC50 HTRF

| Structure (SMILES) | IC50 (IRAK4 enzyme) [nM] | EC50 (TNFα; [2]) [nM] | EC50 (TNFα; [3]) [nM] | IC50 (IRAK4 enzyme; [4]) [nM] | also measured |
| --- | --- | --- | --- | --- | --- |
| CC(C)Nc1cc(-c2ccc3cc(C#N)cnn23)ncc1-c1nnc(N2CCS(=O)(=O)CC2)s1 [Compound 257, 7-(5-(5-(1,1-dioxidothiomorpholino)-1,3,4-thiadiazol-2-yl)-4-(isopropylamino)pyridin-2-yl)pyrrolo[1,2-b]pyridazine-3-carbonitrile] | 0.95 |  |  |  | EC50 (TNFα; [1]): 10000 nM |
| CC(=O)N1C2CCC1CN(c1nnc(-c3cnc(-c4ccc5cc(C#N)cnn45)cc3NC(C)C)s1)C2 [Compound 259, 7-(5-(5-(8-acetyl-3,8-diazabicyclo[3.2.1]octan-3-yl)-1,3,4-thiadiazol-2-yl)-4-(isopropylamino)pyridin-2-yl)pyrrolo[1,2-b]pyridazine-3-carbonitrile] | 0.94 | 2.6 |  |  |  |
| CC(C)Nc1cc(-c2ccc3cc(C#N)cnn23)ncc1-c1nnc(N2CC3CCC(C2)N3C(=O)C2CC2)s1 [Compound 263, 7-(5-(5-(8-(cyclopropanecarbonyl)-3,8-diazabicyclo[3.2.1]octan-3-yl)-1,3,4-thiadiazol-2-yl)-4-(isopropylamino)pyridin-2-yl)pyrrolo[1,2-b]pyridazine-3-carbonitrile] | 1.08 | 5.1 |  |  |  |
| CC(=O)N1[C@@H]2COC[C@H]1CN(c1nnc(-c3cnc(-c4ccc5cc(C#N)cnn45)cc3NC(C)C)s1)C2 [Compound 265, 7-(5-(5-((1R,5S)-9-acetyl-3-oxa-7,9-diazabicyclo[3.3.1]nonan-7-yl)-1,3,4-thiadiazol-2-yl)-4-(isopropylamino)pyridin-2-yl)pyrrolo[1,2-b]pyridazine-3-carbonitrile] | 2.43 | 11.3 |  |  |  |
| CC(=O)N1CCN(c2nnc(-c3cnc(-c4ccc5cc(C#N)cnn45)cc3NC(C)C)s2)C2CC21 (stereo not drawn) [Compound 267, 7-(5-(5-(5-acetyl-2,5-diazabicyclo[4.1.0]heptan-2-yl)-1,3,4-thiadiazol-2-yl)-4-(isopropylamino)pyridin-2-yl)pyrrolo[1,2-b]pyridazine-3-carbonitrile] | 0.65 |  |  |  | EC50 (TNFα; [1]): 18.9 nM |
| CC(=O)NC12CC(c3nnc(-c4cnc(-c5ccc6cc(C#N)cnn56)cc4NC4CCOCC4)s3)(C1)C2 [Compound 270, N-(3-(5-(6-(3-cyanopyrrolo[1,2-b]pyridazin-7-yl)-4-((tetrahydro-2H-pyran-4-yl)amino)pyridin-3-yl)-1,3,4-thiadiazol-2-yl)bicyclo[1.1.1]pentan-1-yl)acetamide] | 0.65 |  |  |  | EC50 (TNFα; [1]): 10.7 nM |
| CC(C)Nc1cc(-c2ccc3cc(C#N)cnn23)ncc1-c1nnc(N2CC3CC(C2)N3C(=O)OC(C)(C)C)s1 [Compound 271, tert-butyl 3-(5-(6-(3-cyanopyrrolo[1,2-b]pyridazin-7-yl)-4-(isopropylamino)pyridin-3-yl)-1,3,4-thiadiazol-2-yl)-3,6-diazabicyclo[3.1.1]heptane-6-carboxylate] | 3.22 | 89 |  |  |  |
| CC(C)Nc1cc(-c2ccc3cc(C#N)cnn23)ncc1-c1nnc(N2CC3CC(C2)N3C(=O)C(C)(C)O)s1 [Compound 273, 7-(5-(5-(6-(2-hydroxy-2-methylpropanoyl)-3,6-diazabicyclo[3.1.1]heptan-3-yl)-1,3,4-thiadiazol-2-yl)-4-(isopropylamino)pyridin-2-yl)pyrrolo[1,2-b]pyridazine-3-carbonitrile] | 0.68 | 4.1 |  |  |  |
| CC(C)Nc1cc(-c2ccc3cc(C#N)cnn23)ncc1-c1nnc(N2C3CNCC2C3)s1 [Compound 274, 7-(5-(5-(3,6-diazabicyclo[3.1.1]heptan-6-yl)-1,3,4-thiadiazol-2-yl)-4-(isopropylamino)pyridin-2-yl)pyrrolo[1,2-b]pyridazine-3-carbonitrile] | 1.59 | 41 |  |  |  |
| CC(C)Nc1cc(-c2ccc3cc(C#N)cnn23)ncc1-c1nnc(N2C3CC2CN(C(=O)C(C)(C)O)C3)s1 [Compound 275, 7-(5-(5-(3-(2-hydroxy-2-methylpropanoyl)-3,6-diazabicyclo[3.1.1]heptan-6-yl)-1,3,4-thiadiazol-2-yl)-4-(isopropylamino)pyridin-2-yl)pyrrolo[1,2-b]pyridazine-3-carbonitrile] | 0.78 |  |  |  | EC50 (TNFα; [1]): 6.4 nM |
| CC(C)Nc1cc(-c2ccc3cc(C#N)cnn23)ncc1-c1nnc(N2C3CC2CN(C(=O)N2CCN(C)CC2)C3)s1 [Compound 277, 7-(4-(isopropylamino)-5-(5-(3-(4-methylpiperazine-1-carbonyl)-3,6-diazabicyclo[3.1.1]heptan-6-yl)-1,3,4-thiadiazol-2-yl)pyridin-2-yl)pyrrolo[1,2-b]pyridazine-3-carbonitrile] | 0.93 | 11.3 |  |  |  |
| CC(=O)NC12CCC(c3nnc(-c4cnc(-c5ccc6cc(C#N)cnn56)cc4NC(C)C)s3)(CC1)CC2 [Compound 280, N-(4-(5-(6-(3-cyanopyrrolo[1,2-b]pyridazin-7-yl)-4-(isopropylamino)pyridin-3-yl)-1,3,4-thiadiazol-2-yl)bicyclo[2.2.2]octan-1-yl)acetamide] | 1.03 |  |  |  | EC50 (TNFα; [1]): 7.4 nM |
| CNC(=O)[C@@H]1CCCN1c1nnc(-c2cnc(-c3ccc4cc(C#N)cnn34)cc2NC2COC2)s1 [Compound 332] |  |  |  |  | EC50 (TNFα; human monocytes, second part of Table 2, compounds 33-343, unit inferred, read-out: EC50 MONO TNF HTRF): 435 nM; IC50 (IRAK4 enzyme; second part of Table 2, compounds 33-343, unit inferred, read-out: IC50 IRAK4-HTBS): 1.61 nM |
| CC(C)Nc1cc(-c2ccc3cc(C#N)cnn23)ncc1-c1nnc(CCNC(=O)OC(C)(C)C)s1 [Example 1, tert-butyl (2-(5-(6-(3-cyanopyrrolo[1,2-b]pyridazin-7-yl)-4-(isopropylamino)pyridin-3-yl)-1,3,4-thiadiazol-2-yl)ethyl)carbamate] |  |  | 309 | 1.5 |  |
| CC(=O)N[C@H]1CC[C@H](c2nnc(-c3cnc(-c4ccc5cc(C#N)cnn45)cc3N[C@H]3CC[C@H](c4nnc(C(F)F)o4)CC3)s2)CC1 [Example 2, N-((1R,4r)-4-(5-(6-(3-cyanopyrrolo[1,2-b]pyridazin-7-yl)-4-(((1r,4R)-4-(5-(difluoromethyl)-1,3,4-oxadiazol-2-yl)cyclohexyl)amino)pyridin-3-yl)-1,3,4-thiadiazol-2-yl)cyclohexyl)acetamide] |  |  | 8 | 1 |  |
| CC(=O)N[C@H]1CC[C@H](c2nnc(-c3cnc(-c4ccc5cc(C#N)cnn45)cc3NC3(C)COC3)s2)CC1 [Example 3, N-((1r,4r)-4-(5-(6-(3-cyanopyrrolo[1,2-b]pyridazin-7-yl)-4-((3-methyloxetan-3-yl)amino)pyridin-3-yl)-1,3,4-thiadiazol-2-yl)cyclohexyl)acetamide] |  |  | 15 | < 1 |  |
| CC(C)Nc1cc(-c2ccc3cc(C#N)cnn23)ncc1-c1nnc(N2CCC3(CC2)COC3)s1 [Example 4, 7-(5-(5-(2-oxa-7-azaspiro[3.5]nonan-7-yl)-1,3,4-thiadiazol-2-yl)-4-(isopropylamino)pyridin-2-yl)pyrrolo[1,2-b]pyridazine-3-carbonitrile] |  |  | 23 | 1 |  |
| CC(C)Nc1cc(-c2ccc3cc(C#N)cnn23)ncc1-c1nnc(CO)s1 [Example 5, 7-(5-(5-(hydroxymethyl)-1,3,4-thiadiazol-2-yl)-4-(isopropylamino)pyridin-2-yl)pyrrolo[1,2-b]pyridazine-3-carbonitrile] |  |  | 76 | 1 |  |
| CC(=O)NC1CCN(c2nnc(-c3cnc(-c4ccc5cc(C#N)cnn45)cc3NC(C)C)s2)CC1 [Example 6, N-(1-(5-(6-(3-cyanopyrrolo[1,2-b]pyridazin-7-yl)-4-(isopropylamino)pyridin-3-yl)-1,3,4-thiadiazol-2-yl)piperidin-4-yl)acetamide] |  |  | 19 | < 1 |  |
| CC(C)Nc1cc(-c2ccc3cc(C#N)cnn23)ncc1-c1nnc(-c2ccc(N)cc2)s1 [Example 7, 7-(5-(5-(4-aminophenyl)-1,3,4-thiadiazol-2-yl)-4-(isopropylamino)pyridin-2-yl)pyrrolo[1,2-b]pyridazine-3-carbonitrile] |  |  | > 10000 | 9 |  |
| CC(=O)N1CCN(C(=O)c2nnc(-c3cnc(-c4ccc5cc(C#N)cnn45)cc3NC(C)C)s2)CC1 [Example 10, 7-(5-(5-(4-acetylpiperazine-1-carbonyl)-1,3,4-thiadiazol-2-yl)-4-(isopropylamino)pyridin-2-yl)pyrrolo[1,2-b]pyridazine-3-carbonitrile] |  |  | 157 | < 1 |  |
